Earlier results on one compound are cited in patent US20230061908A1 (priority 2020, published 2023).

For the series the following is noted: wide distribution to most tissues.

For `CCC(CC)COC(=O)[C@H](C)N[P@](=O)(OC[C@H]1O[C@@](C#N)(c2ccc3c(N)ncnn23)[C@H](O)[C@@H]1O)Oc1ccccc1` [Remdesivir], the “crossing of the BBB (blood-brain barrier)” value was “does not cross the BBB”.
